Laboratory results: patent US7579338B2, “Methods and compositions for treating atheroma, tumors and other neoplastic tissues” (Pharmacyclics, Inc., priority 1999, dated 2009)

What was measured:
[1] = Oxidation of ascorbate under approximate physiologic conditions (UV-vis, 266 nm); type: biochemical
Description: • Stock ascorbic acid (Sigma A 5960) (prepared fresh): 8.82 mg/(25 mL 176.1 mg/mmol)=2.00 mM • Stock GdTex: 5.72 mg/(10.0 mL water. 1148 mg/mmol)=498 μM • Stock 4× Buffer: 200 mM HEPES, pH 7.5; 400 mM NaCl The stock solutions were prepared using ACS grade water (Aldrich 32,007-2). 4× buffer was prepared using NaCl 99.999% (Aldrich 20,443-9), HEPES (Gibco-BRL 11344-025), and sodium hydroxide 99.99% (Aldrich 30,657-6), and was treated with Chelex® 100 (BioRad 143-2832) prior to use to remove trace iron contaminants. These were combined to form the reaction mixture analyzed by UV-vis spectroscopy: 400 μL 4× Buffer, 200 μL Ascorbic Acid Stock, 979.9 μL Water, 20.1 μL GdTex Stock.
In brief, a reaction mixture was prepared containing ascorbate, buffer, and water. A lesser amount of texaphyrin catalyst, eg., 0.025 molar equivalent, was added to this reaction mixture, vortexed briefly, and placed in a quartz cuvette (0.2, 0.5, 1.0, 2.0, 5.0, or 10 mm path length as needed to give ca. 1.8 absorbance reading at 266 nm). The cuvette was placed in a UV-vis spectrophotometer and the absorbance was read every 60 seconds for ten minutes. The absorbance at 266 nm plotted against time initially gaive a straight line. The slope of initial time points (eg., plotting as M concentration vs time in minutes) provided a rate which was used as a point in a saturation (Michaelis-Menton) plot. This process was repeated at various concentrations of ascorbate. A background rate of ascorbate oxidation was also measured at each concentration of ascorbate using this procedure without GdTex catalyst. The resulting background rate of oxidation was subtracted from the rate of oxidation in the presence of catalyst.
2B. […] 2C. […] 2D. By following the procedure of Example 2A, using an initial ascorbate concentration of 1.23 mM and a texaphyrin concentration of 61.5 μM, the results summarized in below in Table 1 were obtained.

[2] = Production of H2O2 in the presence of ascorbate (colorimetric); type: biochemical; conditions: ascorbate plus GdTex, over the time interval of 75 to 200 minutes
Description: In this example, the following stock solutions were prepared: • Stock ascorbic acid (Sigma A 5960) (prepared fresh): 9.98 mg/(10 mL×176.12 mg/mmol)=5.67 mM • Stock GdTex: 5.76 mg/(10.0 mL water×1148 mg/mmol)=502 μM • Stock 4× Buffer: 200 mM HEPES, pH 7.5; 400 mM NaCl These were combined to form the reaction mixture: 200 μL 4× Buffer, 39 μL ascorbic acid Stock, 517.3 μL Water, 43.7 μL GdTex Stock. The reaction mixture was analyzed for hydrogen peroxide as indicated above. As a control, a solution in which complex was not added was prepared as above, with suitable adjustment of the volume of water, and analyzed concurrently.
Measurements of the absorbance at 560 nm (with appropriate subtraction of the background absorbance of the reagent at this wavelength) were made of samples taken at the various timepoints. It was noted that the control solution gave a uniform background absorbance which was similar at all time points, whereas the mixture containing GdTex gave an increasing amount of absorbance over time. (Sugars are known to produce high background absorbance in this assay, see manufacturers insert for details.)

[3] = system: EMT-6 mouse mammary sarcoma cells; experiment: Proliferation of EMT-6 cells with NADPH and texaphyrin (MTT); type: cell-based; conditions: for inhibitory effect of texaphyrin with 1000 μM and 333 μM NADPH: NADPH 1000 μM and 333 μM; for inhibitory effect of texaphyrin at lower concentrations of NADPH: NADPH below 333 μM; for inhibitory effect of texaphyrin in the absence of NADPH: no NADPH
Description: 5A. Materials and Methods. MES-SA cells were allowed to adhere to (4) 96-well microtiter plates (4000 cells per well) overnight in 160 μL RPMI medium. Stock ascorbate 3.0 mM in medium (80 μL) was serially diluted (1:3) in rows B through F (discarding the final 80 μL). Row G was used for no-ascorbate control. Stock solutions of GdTex (2 mM in 5% mannitol) diluted in medium and 5% mannitol were prepared and added to the plates to give a final volume of 200 μL in all wells. Columns 2 and 3 contained 100 μM GdTex; columns 4 and 5 contained 75 μM GdTex, columns 6 and 7 contained 50 μM GdTex; columns 8 and 9 contained 25 μM GdTex; and columns 10 and 11 contained no GdTex (all concentrations final). Final mannitol concentration was 0.25% in all wells. The plates were incubated at 37 C under a 5% CO2/95% air atmosphere. Complex-containing medium was exchanged for fresh medium after 5 hours, and plates were incubated an additional 72 hours prior to analysis for viability using the tetrazolium dye, MTT (Mosmann, T. J. Immunol. Methods 1983, 65, 55-63). In brief, 20 μL MTT dye (Sigma Chemical, St. Louis, Mo., catalogue no. M 2128, 5 mg/mL solution in phosphate buffered saline) was added to cells in media to give a final volume of 200 μL. The plates were incubated at 37° C. for ca. 2 hours, whereupon the media was removed and isopropyl alcohol (100 μL/well) was added. Plates were vortexed for ca. 3 minutes to dissolve MTT formazan, then read on a microplate reader at 560-650 nm. Plate absorbances were normalized to wells containing neither ascorbate nor GdTex to allow plate to plate comparison. Data for each concentration of GdTex and ascorbate is the average of eight wells.
(§1) The proliferation of EMT-6 mouse mammary sarcoma (Rockwell, S. C., et al., J. Natl. Cancer Inst. 1972, 49, 735-749) cells grown in RPMI-1640 medium in the presence of NADPH and motexafin lutetium was used to assess the production of hydrogen peroxide under cell culture conditions following the protocol outlined in the previous example.
as §1, with “GdTex” for “motexafin lutetium”

| Compound | kcat (first-order rate constant for the catalyst), ascorbate oxidation ([1]; substrate ascorbate, pH 7.5, background subtracted) | Km ([1]; substrate ascorbate, pH 7.5, background subtracted, read-out: KM (dissociation or Michaelis constant), ascorbate oxidation) | H2O2 produced [2] | inhibitory effect of texaphyrin with 1000 μM and 333 μM NADPH [3] | inhibitory effect of texaphyrin at lower concentrations of NADPH [3] | inhibitory effect of texaphyrin in the absence of NADPH [3] | ascorbate oxidation (in words) ([1]; procedure of Example 2A, compared with motexafin gadolinium) |
| --- | --- | --- | --- | --- | --- | --- | --- |
| CC(=O)[O-].CC(=O)[O-].CCc1c(CC)c2cc3nc(cnc4cc(OCCOCCOCCOC)c(OCCOCCOCCOC)cc4ncc4nc(cc1[n-]2)C(CCCO)=C4C)C(C)=C3CCCO.O.[Gd+3] [GdTex, motexafin gadolinium] | 0.00583 s⁻¹ | 1060 µM | approximately 35 μM | dose-response was observed | No inhibitory effect | no inhibitory effect |  |
| CC(=O)[O-].CC(=O)[O-].CCc1c(CC)c2cc3nc(cnc4cc(OCCOCCOCCOC)c(OCCOCCOCCOC)cc4ncc4nc(cc1[n-]2)C(CCCO)=C4C)C(C)=C3CCCO.O.[Lu+3] [LuTex, motexafin lutetium] |  |  |  | dose-response was observed | No inhibitory effect | no inhibitory effect | to a lesser extent than in the presence of motexafin gadolinium |
